Measured values as given in patent US6667335B2, “Imidazole derivatives” (Hoffmann-La Roche Inc., priority 2001, dated 2003).
Where a name gives a salt, the structure may show the parent alone.

Assays:
NMDA-receptor subtype 2B = target: T1, NMDA-receptor subtype 2B (Rattus norvegicus, UniProt P35439+Q00960); experiment: 3H-Ro 25-6981 binding (displacement) on rat brain membranes; settings: displacement of 5 nM 3H-Ro 25-6981, rat whole brain membranes (minus cerebellum and medulla oblongata), 2 hours at 4° C.
T1 construct: Membranes were prepared by homogenization of the whole brain minus cerebellum and medulla oblongata; from tissue; host or cells: rat whole brain minus cerebellum and medulla oblongata, membrane preparation
T1 sequence (Q00960 27-1482, other chains not shown): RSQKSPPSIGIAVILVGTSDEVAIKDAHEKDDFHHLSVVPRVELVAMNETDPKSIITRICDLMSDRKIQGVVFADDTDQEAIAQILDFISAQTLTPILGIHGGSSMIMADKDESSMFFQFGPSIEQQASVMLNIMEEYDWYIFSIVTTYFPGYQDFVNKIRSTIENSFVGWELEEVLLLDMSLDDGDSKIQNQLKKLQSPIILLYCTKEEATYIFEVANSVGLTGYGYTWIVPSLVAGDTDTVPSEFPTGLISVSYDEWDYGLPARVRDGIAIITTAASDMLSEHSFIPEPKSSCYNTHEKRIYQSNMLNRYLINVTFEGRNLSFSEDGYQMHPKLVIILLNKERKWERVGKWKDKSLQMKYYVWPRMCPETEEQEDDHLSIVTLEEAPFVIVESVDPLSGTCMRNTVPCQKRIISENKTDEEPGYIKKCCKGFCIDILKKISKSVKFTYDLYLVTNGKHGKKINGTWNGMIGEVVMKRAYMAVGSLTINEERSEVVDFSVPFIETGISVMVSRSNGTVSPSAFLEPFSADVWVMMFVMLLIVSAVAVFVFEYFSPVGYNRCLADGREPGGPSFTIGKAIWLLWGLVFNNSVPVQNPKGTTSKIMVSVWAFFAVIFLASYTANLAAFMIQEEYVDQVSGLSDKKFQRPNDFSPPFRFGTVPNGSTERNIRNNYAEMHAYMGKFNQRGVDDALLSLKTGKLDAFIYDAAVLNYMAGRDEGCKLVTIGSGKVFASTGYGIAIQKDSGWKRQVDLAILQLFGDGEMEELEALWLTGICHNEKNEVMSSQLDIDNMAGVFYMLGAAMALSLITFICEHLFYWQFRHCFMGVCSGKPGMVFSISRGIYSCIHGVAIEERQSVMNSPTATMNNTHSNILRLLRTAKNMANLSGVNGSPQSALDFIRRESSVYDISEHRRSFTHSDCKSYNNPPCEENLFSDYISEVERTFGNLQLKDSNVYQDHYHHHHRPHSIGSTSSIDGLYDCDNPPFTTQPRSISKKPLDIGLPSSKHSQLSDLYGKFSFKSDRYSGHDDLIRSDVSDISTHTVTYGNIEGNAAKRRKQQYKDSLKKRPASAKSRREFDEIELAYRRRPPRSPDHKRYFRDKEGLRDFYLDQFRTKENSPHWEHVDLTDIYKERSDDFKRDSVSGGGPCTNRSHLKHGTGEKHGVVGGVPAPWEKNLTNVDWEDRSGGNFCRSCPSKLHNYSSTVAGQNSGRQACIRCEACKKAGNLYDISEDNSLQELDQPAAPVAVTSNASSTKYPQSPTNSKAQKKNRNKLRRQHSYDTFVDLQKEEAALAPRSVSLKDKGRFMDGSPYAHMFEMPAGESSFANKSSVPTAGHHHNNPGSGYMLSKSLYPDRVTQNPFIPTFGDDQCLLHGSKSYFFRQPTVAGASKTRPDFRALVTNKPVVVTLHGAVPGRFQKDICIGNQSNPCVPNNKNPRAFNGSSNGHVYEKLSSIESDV
Procedure: ^3H[R-(R*,S*)]-(α-(4-Hydroxy-phenyl)-β-methyl-4-(phenyl-methyl)-1-piperidine propanol)binding
Male Füllinsdorf albino rats weighing between 150-200 g were used. Membranes were prepared by homogenization of the whole brain minus cerebellum and medulla oblongata with a Polytron (10.000 rpm, 30 seconds), in 25 volumes of a cold Tris-HCl 50 mM, EDTA 10 mM, pH 7.1 buffer. The homogenate was centrifuged at 48,000 g for 10 minutes at 4° C. The pellet was resuspended using the Polytron in the same volume of buffer and the homogenate was incubated at 37° C. for 10 minutes. After centrifugation the pellet was homogenized in the same buffer and frozen at −80° C. for at least 16 hours but not more than 10 days. For the binding assay the homogenate was thawed at 37° C., centrifuged and the pellet was washed three times as above in a Tris-HCl 5 mM, pH 7.4 cold buffer. The final pellet was resuspended in the same buffer and used at a final concentration of […]. ^3H-Ro 25-6981 binding experiments were performed using a Tris-HCl 50 mM, pH 7.4 buffer. For displacement experiments 5 nM of ^3H-Ro 25-6981 were used and non specific binding was measured using 10 mM of tetrahydroisoquinoline and usually it accounts for 10% of the total. The incubation time was 2 hours at 4° C. and the assay was stopped by filtration on Whatmann GF/B glass fiber filters (Unifilter-96, Packard, Zürich, Switzerland). The filters were washed 5 times with cold buffer. The radioactivity on the filter was counted on a Packard Top-count microplate scintillation counter after addition of […] of microscint 40 (Canberra Packard S.A., Zuirich, Switzerland).
The effects of compounds were measured using a minimum of 8 concentrations and repeated at least once.

SMILES | IC50 (NMDA-receptor subtype 2B) | melting point
Cc1nccn1Cc1cn(-c2ccc(Cl)c(Cl)c2)cn1.Cl.Cl [Example 2, 1H-Imidazole, 1-[[1-(3,4-Dichlorophenyl)-1H-imidazol-4-yl]methyl]-2-methyl-, Hydrochloride (1:2)] | 10 nM | > 250 °C
CCc1nccn1Cc1cn(-c2ccc(Cl)c(C)c2)cn1.Cl.Cl [Example 10, 1H-Imidazole, 1-[[1-(4-Chloro-3-methylphenyl)-1H-imidazol-4-yl]methyl]-2-ethyl-, Hydrochloride (1:2)] | 4 nM | 186 to 187 °C
Cc1cc(-n2cnc(Cn3ccnc3C)c2)ccc1Cl.Cl.Cl [Example 11, 1H-Imidazole, 1-[[1-(4-Chloro-3-methylphenyl)-1H-imidazol-4-yl]methyl]-2-methyl-, Hydrochloride (1:2)] | 5 nM | 218 to 220 °C
Cc1ccc(-n2cnc(Cn3ccnc3C)c2)cc1C(F)(F)F.Cl.Cl [Example 39, 1H-Imidazole, 2-Methyl-1-[[1-[4-methyl-3-(trifluoromethyl)phenyl]-1H-imidazol-4-yl]methyl]-, Hydrochloride (1:2)] | 43 nM | > 235 °C (dec.)
Cc1nccn1Cc1cn(-c2ccc(Cl)cc2)cn1.Cl.Cl [Example 48, 1H-Imidazole, 1-[[1-(4-Chlorophenyl)-1H-imidazol-4-yl]methyl]-2-methyl-, Hydrochloride (1:2)] | 61 nM | 243 to 244 °C
Cc1ccc(-n2cnc(Cn3ccnc3)c2)cc1Cl.Cl.Cl [Example 89, 1H-Imidazole, 1-(3-Chloro-4-methylphenyl)-4-(1H-imidazol-1-yl-methyl)-, Hydrochloride (1:2)] | 48 nM | 218 to 220 °C
Cc1nccn1Cc1cn(-c2ccc(F)c(Cl)c2)cn1.Cl.Cl [Example 93, 1H-Imidazole, 1-[[1-(3-Chloro-4-fluorophenyl)-1H-imidazol-4-yl]methyl]-2-methyl-, Hydrochloride (1:2)] | 20 nM | 224 to 225 °C
Cc1nccn1Cc1ncn(-c2ccc(Cl)c(Cl)c2)c1C.Cl.Cl [Example 103, 1H-Imidazole, 1-(3,4-Dichlorophenyl)-5-methyl-4-[(2-methyl-1H-imidazol-1-yl)methyl]-, Hydrochloride (1:2)] | 43 nM | > 240 °C (dec.)
OCc1nccn1Cc1cn(-c2ccc(Cl)c(Cl)c2)cn1 [Example 109, {1-[1-(3,4-Dichloro-phenyl)-1H-imidazol-4-yl-methyl]-1H-imidazol-2-yl}-methanol] | 85 nM | 202 to 203 °C
Cc1nccn1Cc1cn(-c2cccc(C(C)(F)F)c2)cn1.Cl.Cl [Example 147, 1H-Imidazole, 1-[[1-[3-(1,1-Difluoroethyl)phenyl]-1H-imidazol-4-yl]methyl]-2-methyl-, Hydrochloride (1:2)] | 9.2 nM | > 200 °C (dec.)
Cc1nccn1Cc1cn(-c2ccc(F)c(C(C)(F)F)c2)cn1.Cl.Cl [Example 149, 1H-Imidazole, 1-[[1-[3-(1,1-Difluoroethyl)-4-fluorophenyl]-1H-imidazol-4-yl]methyl]-2-methyl-, Hydrochloride (1:2)] | 8.2 nM | > 200 °C (dec.)
Cc1cc(-c2cnc(Cn3ccnc3C)n2C)ccc1F [Example 230, 5-(4-Fluoro-3-methyl-phenyl)-1-methyl-2-(2-methyl-imidazol-1-ylmethyl)-1-H-imidazole Hydrochloride (1:1)] | 84 nM | 
Cc1cc(-c2cnc(Cn3ccnc3C)n2C)ccc1Cl [Example 232, 5-(4-Chloro-3-methyl-phenyl)-1-methyl-2-(2-methyl-imidazol-1-ylmethyl)-1-H-imidazole-hydrochloride Hydrochloride (1:1)] | 40 nM | 

More lines, in order of falling IC50 (NMDA-receptor subtype 2B), values ahead:

IC50 (NMDA-receptor subtype 2B) | melting point | SMILES
95 nM | > 250 °C | Cc1cc(-n2cnc(Cn3cnc(C)c3C)c2)ccc1Cl.Cl.Cl [Example 13, 1H-Imidazole, 1-[[1-(4-Chloro-3-methylphenyl)-1H-imidazol-4-yl]methyl]-4,5-dimethyl-, Hydrochloride (1:2)]
93 nM | 220 to 221 °C | CCc1nccn1Cc1cn(-c2ccc(OC)c(Cl)c2)cn1.Cl.Cl [Example 58, 1H-Imidazole, 1-[[1-(3-Chloro-4-methoxyphenyl)-1H-imidazol-4-yl]methyl]-2-ethyl-, Hydrochloride (1:2)]
78 nM | > 250 °C | Cc1nccn1Cc1cn(-c2ccc3c(c2)OCO3)cn1.Cl.Cl [Example 52, 1H-Imidazole, 1-[[1-(1,3-Benzodioxol-5-yl)-1H-imidazol-4-yl]methyl]-2-methyl-, Hydrochloride (1:2)]
38 nM | 169 to 170 °C | Cc1nccn1Cc1cn(-c2cccc(SC(F)(F)F)c2)cn1.Cl.Cl [Example 144, 1H-Imidazole, 2-Methyl-1-[[1-[3-(trifluoromethylthio)phenyl]-1H-imidazol-4-yl]methyl]-, Hydrochloride (1:2)]
30 nM |  | Cc1nccn1Cc1cncc(-c2cc(F)cc(C(F)(F)F)c2)c1 [Example 227, 3-(3-Fluoro-5-trifluoromethyl-phenyl)-5-(2-methyl-imidazol-1-ylmethyl)-pyridine]
21 nM | 248 to 250 °C | CCc1nccn1Cc1cn(-c2ccc(F)c(Cl)c2)cn1.Cl.Cl [Example 94, 1H-Imidazole, 1-[[1-(3-Chloro-4-fluorophenyl)-1H-imidazol-4-yl]methyl]-2-ethyl-, Hydrochloride (1:2)]
17 nM | 236 to 238 °C (dec.) | CC(C)c1nccn1Cc1cn(-c2ccc(Cl)c(Cl)c2)cn1.Cl.Cl [Example 4, 1H-Imidazole, 1-[[1-(3,4-Dichlorophenyl)-1H-imidazol-4-yl]methyl]-2-(1-methylethyl)-, Hydrochloride (1:2)]
17 nM | 242 to 243 °C | Cc1ccc(-n2cnc(Cn3ccnc3C)c2)cc1Cl.Cl.Cl [Example 87, 1H-Imidazole, 1-[[1-(3-Chloro-4-methylphenyl)-1H-imidazol-4-yl]methyl]-2-methyl-, Hydrochloride (1:2)]
16 nM | 210 to 212 °C | Cc1cc(-n2cnc(Cn3ccnc3C)c2)ccc1F.Cl.Cl [Example 24, 1H-Imidazole, 1-[[1-(4-Fluoro-3-methylphenyl)-1H-imidazol-4-yl]methyl]-2-methyl-, Hydrochloride (1:2)]
12 nM | > 250 °C | CCc1nccn1Cc1cn(-c2ccc(Cl)c(Cl)c2)cn1.Cl.Cl [Example 3, 1H-Imidazole, 1-[[1-(3,4-Dichlorophenyl)-1H-imidazol-4-yl]methyl]-2-ethyl-, Hydrochloride (1:2)]
12 nM | 240 to 241 °C | CCc1nccn1Cc1cn(-c2ccc3c(c2)CCC3)cn1.Cl.Cl [Example 17, 1H-Imidazole, 1-[[1-(2,3-Dihydro-1H-inden-5-yl)-1H-imidazol-4-yl]methyl]-2-ethyl-, Hydrochloride (1:2)]
12 nM |  | Clc1ccc(-n2cnc(Cn3ccnc3C3CC3)c2)cc1Cl [Example 229, 1H-Imidazole, 2-Cyclopropyl-1-[[1-(3,4-dichlorophenyl)-1H-imidazol-4-yl]methyl]-,]
11 nM | > 250 °C | CCNc1nccn1Cc1cn(-c2ccc(Cl)c(Cl)c2)cn1.Cl.Cl [Example 111, {1-[1-(3,4-Dichloro-phenyl)-1H-imidazol-4-yl-methyl]-1H-imidazol-2-yl}-ethyl-amine Hydrochloride (1:2)]
9 nM | 242 to 243 °C | Cc1nccn1Cc1cn(-c2ccc3c(c2)CCC3)cn1.Cl.Cl [Example 16, 1H-Imidazole, 1-[[1-(2,3-Dihydro-1H-inden-5-yl)-1H-imidazol-4-yl]methyl]-2-methyl-, Hydrochloride (1:2)]
8 nM | 206 to 207 °C | Cc1cc(-n2cnc(Cn3ccnc3)c2)ccc1Cl.Cl.Cl [Example 12, 1H-Imidazole, 1-(4-Chloro-3-methylphenyl)-4-(1H-imidazol-1-yl-methyl)-, Hydrochloride (1:2)]
8 nM | 130 to 134 °C (dec.) | CCc1nccn1Cc1cn(-c2cccc(C(C)(F)F)c2)cn1.Cl.Cl [Example 146, 1H-Imidazole, 1-[[1-[3-(1,1-Difluoroethyl)phenyl]-1H-imidazol-4-yl]methyl]-2-ethyl-, Hydrochloride (1:2)]
7 nM | 241 to 243 °C | CCCc1nccn1Cc1cn(-c2ccc(Cl)c(Cl)c2)cn1.Cl.Cl [Example 1, 1H-Imidazole, 1-[[1-(3,4-Dichlorophenyl)-1H-imidazol-4-yl]methyl]-2-propyl-, Hydrochloride (1:2)]
